According to article PMC9304322, “Targeting retinoic acid receptor alpha-corepressor interaction activates chaperone-mediated autophagy and protects against retinal degeneration” (Nature Communications, 2022):
“And” between values parts separate entries of the source, which are not always exact repeats. Equal entries are not always repeated. Where two headings read alike, the source gives them in different places.

Assays:
[1] = Pharmacokinetic analysis, plasma and brain;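 for Fig. 3a level, MEAN: plasma concentration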;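 for Fig. 3a level, single animals 1-3: plasma concentration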;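 for Fig. 3b level, MEAN: brain concentration in ng/g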;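 for Fig. 3b level, single animals 1-3: brain concentration in ng/g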; format: in vivo, ICR (CD-1) male mice; design: Fig. 3a level, single animals 1-3 / Fig. 3a level, MEAN / Fig. 3b level, single animals 1-3 / Fig. 3b level, MEAN: unit not given here; conditions: for Kp at 0.083 h / Kp at 0.25 h / Kp at 0.5 h / Kp at 1 h / Kp at 2 h / Kp at 4 h / Kp at 8 h / half-life: male, ICR (CD-1), mouse; for half-life: mice
Method: ICR (CD-1) male mice were fasted at least three hours and water was available ad libitum before the study. Animals were housed in a controlled environment, target conditions: temperature 18 to 29 °C, relative humidity 30 to 70%. Temperature and relative humidity was monitored daily. An electronic time-controlled lighting system was used to provide a 12 h light/12 h dark cycle. 3 mice for each indicated time point were administered 30 mg/Kg CA39 or CA77 by oral gavage or 1 mg/Kg CA39 or CA77 by intravenous injection using 30% PEG-400, 65% D5W (5% dextrose in water), 5% Tween-80 vehicle. Mice were sacrificed, and brain samples were harvested at […], 0.25 h, 0.5 h, 1 h, 2 h, 4 h, 8 h, 24 h, and analyzed for CA39 or CA77 levels using LC-MS/MS. Pharmacokinetics parameters were calculated using Phoenix WinNonlin 6.3. Experiments performed at SIMM-SERVIER joint Biopharmacy Laboratory.

[2] = test system: NIH3T3 cells control (empty vector) or knock-down (KD) for N-CoR1; test: CMA activity in NIH3T3 control or knock-down for N-CoR1; format: cell-based, mouse; design: CMA activity: unit not given here; conditions: for CMA activity: Fig. 2h, individual replicate values
Method: NIH3T3 mouse fibroblasts (CRL-1658), CaCo2 cells human colorectal adenocarcinoma (HTB-3), and the N2a neuroblastoma cell line (CCL-131) were obtained from the American Type Culture Collection and were validated by genomic PCR. Primary human fibroblasts (GM01651) were from Coriell Repository. Cells were cultured to full confluence in a 37 °C incubator with 5% CO2 in complete Dulbecco’s modified Eagle’s medium (DMEM, Sigma #D5030) supplemented with 10% heat-inactivated newborn calf serum (HyClone #SH30401.02HI), 1% penicillin/streptomycin/fungizone (Invitrogen, #10072322). All the cell lines were tested for mycoplasma contamination using DNA staining protocol with Hoechst 33258 dye and none of them was found positive. Knock-down of Ncor1 was done using lentiviral mediated shRNA (SHCLNG-NM_011308) from the Sigma Mission library following standard procedures. The efficiency of knock-down was tested by immunoblot. Cell viability was measured using the CellTiter-Blue kit (Promega, #G9241) 24 h after the addition of the different stressors according to the manufacturer’s instructions. All cell lines were validated by genomic PCR.
Cells were transduced with lentivirus carrying the KFERQ-PS-Dendra reporter as before. Cells were photoactivated by exposure to a 3.5 mA (current constant) light emitting diode (LED: Norlux, 405 nm) for 3 min and then plated in glass-bottom 96 well plates. At the desired times, cells were fixed with 4% PFA and imaged using high-content microscopy (Operetta system, Perkin Elmer). Images were quantified using the manufacturer’s software in a minimum of 1,200 cells in 9 independent fields per well. […] This was particularly important in the case of primary human cells where the efficiency of transduction was ~65%. To avoid confounding effects for drug-induced changes in cell volume or adherence to the plate that could bring a fraction of the cells per field outside of focus, we set a threshold to count only […] that have at least 1/10 of the average number of […] detected in the untreated wells for each cell type (3–4 puncta/cell in the case of NIH3T3 and N2a cells and 5 puncta/cell in primary human fibroblasts).

[3] = Pharmacokinetic analysis, plasma and brain;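 for Fig. 3a level, MEAN: plasma concentration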;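 for Fig. 3a level, single animals 1-3: plasma concentration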;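 for Fig. 3b level, MEAN: brain concentration in ng/g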;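 for Fig. 3b level, single animals 1-3: brain concentration in ng/g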; format: in vivo, ICR (CD-1) male mice; design: Fig. 3a level, single animals 1-3 / Fig. 3b level, single animals 1-3: unit not given here

## CC(=O)Nc1ccc(C2=Nc3ccc(Cl)cc3OC2)cc1 [CA77]
[1]; IV, Time 0.25 h
  Fig. 3a level, MEAN: 30.2
  Fig. 3a level, single animals 1-3: 27.2 and 43.9 and 19.5
  Fig. 3b level, MEAN: 3653.67
  Fig. 3b level, single animals 1-3: 3391 and 5173 and 2397
[1]; IV, Time 0.5 h
  Fig. 3a level, MEAN: 17.9
  Fig. 3a level, single animals 1-3: 17.2 and 14.6 and 21.9
  Fig. 3b level, MEAN: 2647.67
  Fig. 3b level, single animals 1-3: 2198 and 2795 and 2950
[1]; IV, Time 1 h
  Fig. 3a level, MEAN: 17.4333
  Fig. 3a level, single animals 1-3: 15.5 and 21.5 and 15.3
  Fig. 3b level, MEAN: 2521.11
  Fig. 3b level, single animals 1-3: 2758.39 and 2650.88 and 2154.07
[1]; IV, Time 2 h
  Fig. 3a level, MEAN: 4.363
  Fig. 3a level, single animals 1-3: 7.54 and 1.71 and 3.84
  Fig. 3b level, MEAN: 658.667
  Fig. 3b level, single animals 1-3: 773 and 411 and 792
[1]; IV, Time 4 h
  Fig. 3a level, MEAN: 0.3767
  Fig. 3a level, single animals 1-3: BLQ and 0.597 and 0.533
  Fig. 3b level, MEAN: 104
  Fig. 3b level, single animals 1-3: 76 and 112 and 124
[1]; IV, Time 8 h
  Fig. 3a level, MEAN: 0
  Fig. 3a level, single animals 1-3: BLQ
  Fig. 3b level, MEAN: 25.5467
  Fig. 3b level, single animals 1-3: 7.74 and 27.5 and 41.4
[1]; IV, Time 24 h
  Fig. 3a level, MEAN: 0
  Fig. 3a level, single animals 1-3: BLQ
  Fig. 3b level, MEAN: 3
  Fig. 3b level, single animals 1-3: 2.68 and 4.25 and 2.07
[1]; P.O., Time 0.25 h, individual animals
  B/P, Brian/Plasma: 60.8033 and 75.265
[1]; P.O., Time 0.5 h, individual animals
  B/P, Brian/Plasma: 154.065 and 93.9339
[1]; P.O., Time 1 h, individual animals
  B/P, Brian/Plasma: 105.807 and 124.313
[1]; P.O., Time 2 h, individual animals
  B/P, Brian/Plasma: 113.451 and 103.8
[1]; P.O., Time 4 h, individual animals
  B/P, Brian/Plasma: 108.623 and 135.516
[1]; P.O., Time 8 h, individual animals
  B/P, Brian/Plasma: 133.365 and 145.604
[1]; PO, Time 0.25 h
  Fig. 3b level, MEAN: 9743
  Fig. 3b level, single animals 1-3: 7893 and 7279 and 14057
[1]; PO, Time 0.5 h
  Fig. 3b level, MEAN: 16210.7
  Fig. 3b level, single animals 1-3: 13095 and 20145 and 15392
[1]; PO, Time 1 h
  Fig. 3b level, MEAN: 30964
  Fig. 3b level, single animals 1-3: 31243 and 27952 and 33697
[1]; PO, Time 2 h
  Fig. 3a level, MEAN: 278
  Fig. 3a level, single animals 1-3: 318 and 259 and 257
  Fig. 3b level, MEAN: 29203.3
  Fig. 3b level, single animals 1-3: 31592 and 29359 and 26659
[1]; PO, Time 4 h
  Fig. 3a level, MEAN: 203.667
  Fig. 3a level, single animals 1-3: 163 and 258 and 190
  Fig. 3b level, MEAN: 24280.3
  Fig. 3b level, single animals 1-3: 19042 and 28003 and 25796
[1]; PO, Time 8 h
  Fig. 3a level, MEAN: 44.4333
  Fig. 3a level, single animals 1-3: 55.2 and 45.3 and 32.8
  Fig. 3b level, MEAN: 5756
  Fig. 3b level, single animals 1-3: 6451 and 6039 and 4778
[1]; PO, Time 24 h
  Fig. 3a level, MEAN: 0
  Fig. 3a level, single animals 1-3: 0
  Fig. 3b level, MEAN: 10.0733
  Fig. 3b level, single animals 1-3: 18.9 and 6.07 and 5.25
[1]; i.v., Time 0.083 h, individual animals
  B/P, Brian/Plasma: 71.1336 and 48.9012
[1]; i.v., Time 0.25 h, individual animals
  B/P, Brian/Plasma: 117.877 and 123.138
[1]; i.v., Time 0.5 h, individual animals
  B/P, Brian/Plasma: 191.891 and 134.551
[1]; i.v., Time 1 h, individual animals
  B/P, Brian/Plasma: 123.104 and 140.908
[1]; i.v., Time 2 h, individual animals
  B/P, Brian/Plasma: 102.433 and 239.982 and 206.167
[1]; i.v., Time 4 h, individual animals
  B/P, Brian/Plasma: 232.498
[1]; brain, iv, 1 mg/Kg, i.v., Time 0.083 h, individual animals, read-out: B/P, Brian/Plasma
  Kp at 0.083 h: 71.3
[1]; brain, iv, 1 mg/Kg, i.v., Time 0.083 h, mean, read-out: B/P, Brian/Plasma, Mean
  Kp at 0.083 h: 71.2
[1]; brain, iv, 1 mg/Kg, i.v., Time 0.25 h, individual animals, read-out: B/P, Brian/Plasma
  Kp at 0.25 h: 125
[1]; brain, iv, 1 mg/Kg, i.v., Time 0.25 h, mean, read-out: B/P, Brian/Plasma, Mean
  Kp at 0.25 h: 122
[1]; brain, iv, 1 mg/Kg, i.v., Time 0.5 h, individual animals, read-out: B/P, Brian/Plasma
  Kp at 0.5 h: 128
[1]; brain, iv, 1 mg/Kg, i.v., Time 0.5 h, mean, read-out: B/P, Brian/Plasma, Mean
  Kp at 0.5 h: 151
[1]; brain, iv, 1 mg/Kg, i.v., Time 1 h, individual animals, read-out: B/P, Brian/Plasma
  Kp at 1 h: 178
[1]; brain, iv, 1 mg/Kg, i.v., Time 1 h, mean, read-out: B/P, Brian/Plasma, Mean
  Kp at 1 h: 159
[1]; brain, iv, 1 mg/Kg, i.v., Time 2 h, mean, read-out: B/P, Brian/Plasma, Mean
  Kp at 2 h: 183
[1]; brain, iv, 1 mg/Kg, i.v., Time 4 h, individual animals, read-out: B/P, Brian/Plasma
  Kp at 4 h: 188
[1]; brain, iv, 1 mg/Kg, i.v., Time 4 h, mean, read-out: B/P, Brian/Plasma, Mean
  Kp at 4 h: 210
[1]; brain, po, 30 mg/Kg, P.O., Time 0.25 h, individual animals, read-out: B/P, Brian/Plasma
  Kp at 0.25 h: 64.5
[1]; brain, po, 30 mg/Kg, P.O., Time 0.25 h, mean, read-out: B/P, Brian/Plasma, Mean
  Kp at 0.25 h: 66.9
[1]; brain, po, 30 mg/Kg, P.O., Time 0.5 h, individual animals, read-out: B/P, Brian/Plasma
  Kp at 0.5 h: 122
[1]; brain, po, 30 mg/Kg, P.O., Time 0.5 h, mean, read-out: B/P, Brian/Plasma, Mean
  Kp at 0.5 h: 123
[1]; brain, po, 30 mg/Kg, P.O., Time 1 h, individual animals, read-out: B/P, Brian/Plasma
  Kp at 1 h: 125
[1]; brain, po, 30 mg/Kg, P.O., Time 1 h, mean, read-out: B/P, Brian/Plasma, Mean
  Kp at 1 h: 118
[1]; brain, po, 30 mg/Kg, P.O., Time 2 h, individual animals, read-out: B/P, Brian/Plasma
  Kp at 2 h: 99.4
[1]; brain, po, 30 mg/Kg, P.O., Time 2 h, mean, read-out: B/P, Brian/Plasma, Mean
  Kp at 2 h: 106
[1]; brain, po, 30 mg/Kg, P.O., Time 4 h, individual animals, read-out: B/P, Brian/Plasma
  Kp at 4 h: 117
[1]; brain, po, 30 mg/Kg, P.O., Time 4 h, mean, read-out: B/P, Brian/Plasma, Mean
  Kp at 4 h: 120
[1]; brain, po, 30 mg/Kg, P.O., Time 8 h, individual animals, read-out: B/P, Brian/Plasma
  Kp at 8 h: 117
[1]; brain, po, 30 mg/Kg, P.O., Time 8 h, mean, read-out: B/P, Brian/Plasma, Mean
  Kp at 8 h: 132
[1]; brain, IV 1 mg/kg, read-out: Half-life in brain (converted)
  half-life: 108 min
[1]; brain, PO 30 mg/kg, read-out: Half-life in brain (converted)
  half-life: 252 min
[1]; plasma, IV 1 mg/kg, read-out: Half-life in plasma (converted)
  half-life: 36 min
[1]; plasma, PO 30 mg/kg, read-out: Half-life in plasma (converted)
  half-life: 132 min
[2]; 20μM for 24 h
  activating effect on CMA upon knock-down of NCOR1: completely ablated
[2]; Ctr cells
  CMA activity: 22.4 and 17.9 and 26.0
[2]; NCOR(-) (NCoR1 KD) cells
  CMA activity: 4.3 and 4.0 and 4.8
[3]; IV, Time 0.083 h
  Fig. 3a level, single animals 1-3: 52.9 and 41.4 and 14.2
  Fig. 3b level, single animals 1-3: 3773 and 2943 and 693
[3]; intraperitoneal 30 mg/kg bw, converted from Cmax or AUC (CA39: AUC and extended half-life)
  predicted brain concentration: 5 to 20 µM
